Test results: US12194039B2, “Methods of treating heart failure by administering omecamtiv mecarbil” (Cytokinetics, Inc., priority 2020, dated 2025)

Experiments:
[1] = test system: patients with heart failure and reduced ejection fraction; assay type: in vivo
Method: The study was event-driven and was ended after approximately 1590 cardiovascular deaths. The overall type I error was 0.05 for 2-sided testing across primary and secondary endpoints with control for multiplicity testing. A single interim efficacy analysis was conducted after approximately two-thirds of the targeted number of cardiovascular deaths accrued with a one-sided alpha of 0.0005. Given the negligible impact of this interim on the final alpha, the full 0.05 was used in the final analysis consistent with the Haybittle-Peto approach. […] The mean differences in the KCCQ TSS change from baseline to Week 24 were estimated using a mixed model stratified by randomization setting (inpatient and outpatient) containing baseline TSS value, region, baseline eGFR, scheduled visit, treatment group, and the interaction of treatment group with scheduled visit. A joint omnibus F-test was used to test the treatment effect for the KCCQ TSS. An overall pooled estimate for the KCCQ TSS treatment difference to placebo were conducted using a likelihood based approach. The prespecified safety analyses included: serious adverse events; adverse events associated with discontinuation of study treatment; “adverse events of interest” i.e., ventricular arrhythmias requiring treatment and positively adjudicated major cardiac ischemic events (including myocardial infarction, hospitalization for unstable angina, coronary revascularization). […] All analyses were performed with the use of SAS software, version 9.4 (SAS Institute).
Excluding the discontinuations due to death, the study drug was stopped in 847 patients (20.6%) receiving omecamtiv mecarbil and 897 patients (21.9%) receiving placebo with 371 (9.0%) in the omecamtiv mecarbil group and 382 (9.3%) receiving placebo discontinuing due to an adverse event. Patients receiving omecamtiv mecarbil had no change in potassium or creatinine concentrations during the course of the trial compared to placebo. Patients receiving omecamtiv mecarbil had increased median concentrations of high sensitivity troponin-I from baseline of 0.004 ng/mL (lower limit of quantification, 0.010 ng/mL) compared to placebo at week 24. […] Ventricular arrhythmias were similar in patients receiving omecamtiv mecarbil compared to placebo (Table 3).
Continuous variables were summarized as means±standard deviations (SD) or medians and first and third quartiles (Q1, Q3), as appropriate. Categorical variables were summarized as counts and percentages. […] The change from baseline on NT-proBNP analysis included all participants who underwent randomization. The difference column is the exponentiated change from baseline on the log scale using a mixed model containing the log baseline value, region, baseline eGFR, scheduled visit, treatment group and interaction of treatment with scheduled visit.
Table 4 summarizes the adverse events reported in 1% or more of patients.

[2] = Effect of food on OM systemic exposure; assay type: in vivo, human; conditions: healthy subjects; result in words
[3] = Pharmacokinetics in patients with hepatic impairment; assay type: in vivo, human; conditions: single dose 25 mg; mild (Child-Pugh A) or moderate (Child-Pugh B) hepatic impairment; result in words
Method: The pharmacokinetics of a single dose of OM 25 mg were evaluated in patients with mild (Child-Pugh A) or moderate (Child-Pugh B) hepatic impairment. The pharmacokinetics (Cmax and AUC) of OM in patients with mild or moderate hepatic impairment were similar to those in patients with normal hepatic function.

MATE 2-K = MATE 2-K (Homo sapiens, UniProt Q86VL8); experiment: In vitro inhibition by OM; assay type: in vitro ADME; conditions: result in words
CYP3A4 [4] = experiment: In vitro induction by OM; assay type: in vitro ADME; conditions: result in words
From the text: (§1) OM may be administered with drugs that are substrates of CYP3A4, CYP2C8, P-gp or BCRP.

CYP3A4 [5] = experiment: Clinical studies and physiologically based pharmacokinetic modeling of OM as perpetrator; assay type: in vivo, human; conditions: clinical studies and PBPK modeling; result in words
From the text: as §1

BCRP = target: T1, BCRP (Homo sapiens, UniProt Q9UNQ0); experiment: as above; assay type: in vivo; design: from tissue; conditions: clinical studies and PBPK modeling; result in words
T1 sequence (Q9UNQ0 1-655): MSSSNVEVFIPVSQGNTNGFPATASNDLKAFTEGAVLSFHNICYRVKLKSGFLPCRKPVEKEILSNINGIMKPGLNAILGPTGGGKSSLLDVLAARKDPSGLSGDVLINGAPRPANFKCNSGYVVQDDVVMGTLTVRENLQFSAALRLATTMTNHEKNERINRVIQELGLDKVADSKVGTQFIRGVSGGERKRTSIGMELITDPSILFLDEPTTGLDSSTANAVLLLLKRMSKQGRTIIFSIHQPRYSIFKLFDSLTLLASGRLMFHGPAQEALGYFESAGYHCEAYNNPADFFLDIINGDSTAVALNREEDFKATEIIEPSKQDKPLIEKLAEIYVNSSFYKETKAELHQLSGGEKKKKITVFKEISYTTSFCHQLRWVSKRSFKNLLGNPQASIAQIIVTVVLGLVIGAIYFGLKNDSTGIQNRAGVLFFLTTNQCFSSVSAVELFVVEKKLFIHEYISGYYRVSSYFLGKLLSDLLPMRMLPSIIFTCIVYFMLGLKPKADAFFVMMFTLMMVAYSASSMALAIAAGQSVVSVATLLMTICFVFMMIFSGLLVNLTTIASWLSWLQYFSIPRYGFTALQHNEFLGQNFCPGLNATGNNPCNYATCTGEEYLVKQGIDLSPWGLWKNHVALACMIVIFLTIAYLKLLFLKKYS
From the text: as §1

[6] = treatment-emergent serious adverse event, preferred term, N = 4110

MATE 2-K, sequence (Q86VL8 1-566 isoform Q86VL8-3): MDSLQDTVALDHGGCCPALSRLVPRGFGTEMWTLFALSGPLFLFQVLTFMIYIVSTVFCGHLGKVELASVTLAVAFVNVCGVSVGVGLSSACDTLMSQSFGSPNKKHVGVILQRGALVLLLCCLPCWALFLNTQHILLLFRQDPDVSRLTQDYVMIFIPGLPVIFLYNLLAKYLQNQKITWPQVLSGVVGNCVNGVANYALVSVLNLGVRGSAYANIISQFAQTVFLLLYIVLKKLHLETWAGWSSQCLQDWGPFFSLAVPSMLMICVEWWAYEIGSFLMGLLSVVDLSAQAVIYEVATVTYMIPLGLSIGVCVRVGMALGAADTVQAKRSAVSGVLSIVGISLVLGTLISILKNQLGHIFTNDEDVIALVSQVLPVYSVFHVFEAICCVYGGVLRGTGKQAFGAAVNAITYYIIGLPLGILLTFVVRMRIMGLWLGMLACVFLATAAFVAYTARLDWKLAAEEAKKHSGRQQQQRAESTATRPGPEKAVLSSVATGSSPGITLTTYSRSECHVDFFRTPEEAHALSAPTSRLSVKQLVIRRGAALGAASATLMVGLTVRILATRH

COC(=O)N1CCN(Cc2cccc(NC(=O)Nc3ccc(C)nc3)c2F)CC1 [omecamtiv mecarbil]
Acute kidney injury, % ([1]; human, in vivo): (3.1) %
Acute myocardial infarction, % ([1]; human, in vivo): (1.7) %
Adjudicated major cardiac ischemic events, no. ([1]; human, in vivo): 200 no.
Adjudicated major cardiac ischemic events, relative risk ([1]; human, in vivo): 1.06
Angina pectoris, % ([1]; human, in vivo): (1.0) %
Angina unstable, % ([1]; human, in vivo): (1.5) %
Atrial fibrillation, % ([1]; human, in vivo): (2.3) %
Cardiac arrest, % ([1]; human, in vivo): (1.2) %
Cardiac failure acute, % ([1]; human, in vivo): (5.2) %
Cardiac failure chronic, % ([1]; human, in vivo): (3.8) %
Cardiac failure congestive, % ([1]; human, in vivo): (3.6) %
Cardiac failure, % ([1]; human, in vivo): (24.0) %
Cardiogenic shock, % ([1]; human, in vivo): (1.8) %
Chronic kidney disease, % ([1]; human, in vivo): (0.9) %
Chronic obstructive pulmonary disease, % ([1]; human, in vivo): (1.5) %
Coronary revascularization (adjudicated), % ([1]; human, in vivo): (2.8) %
Coronary revascularization (adjudicated), no. ([1]; human, in vivo): 115 no.
Drug discontinuation due to an adverse event, no. ([1]; human, in vivo): 371 no.
Drug discontinuation due to an adverse event, relative risk ([1]; human, in vivo): 0.97
Hospitalized for unstable angina (adjudicated), % ([1]; human, in vivo): (0.6) %
Hospitalized for unstable angina (adjudicated), no. ([1]; human, in vivo): 25 no.
Hypotension, % ([1]; human, in vivo): (1.2) %
Myocardial infarction (adjudicated major cardiac ischemic event), no. ([1]; human, in vivo): 122 no.
Myocardial infarction, % ([1]; human, in vivo): (0.9) %
Pneumonia, % ([1]; human, in vivo): (4.2) %
Renal failure, % ([1]; human, in vivo): (0.6) %
Renal impairment, % ([1]; human, in vivo): (0.6) %
Respiratory tract infection, % ([1]; human, in vivo): (0.4) %
Sepsis, % ([1]; human, in vivo): (1.2) %
Septic shock, % ([1]; human, in vivo): (0.9) %
Serious adverse events (subjects reporting treatment-emergent serious adverse events), % ([1]; human, in vivo): (57.7) %
Serious adverse events (subjects reporting treatment-emergent serious adverse events), no. ([1]; human, in vivo): 2373 no.
Serious adverse events, relative risk ([1]; human, in vivo): 0.97
Serious adverse ventricular arrhythmia requiring treatment, % ([1]; human, in vivo): (2.9) %
Serious adverse ventricular arrhythmia requiring treatment, no. ([1]; human, in vivo): 119 no.
Serious adverse ventricular arrhythmia requiring treatment, relative risk ([1]; human, in vivo): 0.93
Stroke, % ([1]; human, in vivo): (1.8) %
Stroke, no. ([1]; human, in vivo): 76 no.
Stroke, relative risk ([1]; human, in vivo): 0.68
Study drug stopped, % of patients ([1]; human, in vivo): 20.6%
Study drug stopped, no. of patients ([1]; human, in vivo): 847 no.
Syncope, % ([1]; human, in vivo): (1.0) %
Torsade de pointes/QT prolongation (narrow SMQ), % ([1]; human, in vivo): (4.3) %
Torsade de pointes/QT prolongation (narrow SMQ), no. ([1]; human, in vivo): 176 no.
Torsade de pointes/QT prolongation (narrow SMQ), relative risk ([1]; human, in vivo): 0.90
Ventricular fibrillation, % ([1]; human, in vivo): (0.7) %
Ventricular tachyarrhythmias (narrow SMQ), % ([1]; human, in vivo): (7.1) %
Ventricular tachyarrhythmias (narrow SMQ), no. ([1]; human, in vivo): 290 no.
Ventricular tachyarrhythmias (narrow SMQ), relative risk ([1]; human, in vivo): 0.95
Ventricular tachycardia, % ([1]; human, in vivo): (2.6) %
lschaemic stroke, % ([1]; human, in vivo): (0.9) %
Death, % [1, 6]: (1.6) %
Sudden cardiac death, % [1, 6]: (0.7) %
Sudden death, % [1, 6]: (1.3) %
Effect of a high-fat, high-calorie meal on systemic exposure [2]: no clinically significant effect
Pharmacokinetics (Cmax and AUC) versus normal hepatic function [3]: similar
Inhibition of MATE 2-K (MATE 2-K): inhibitor
Induction of CYP3A4 (CYP3A4 [4]): inducer
Induction of CYP3A4 (CYP3A4 [5]): weak inducer
Inhibition of BCRP (BCRP): weak inhibitor
